EP4268823A1, “COMPOUND FOR TREATING NEUROINFLAMMATION” (Universitätsklinikum Hamburg-Eppendorf, priority 2022, dated 2023)

Tests used:
[1] = test system: primary neuronal cultures; experiment: Cytosolic calcium imaging of glutamate-exposed neuronal cultures; assay type: cell-based, mouse; conditions: UNC0642 pre-treatment plus ferroptosis inhibitor (ferrostatin-1)
Method: (§1) For primary cortical cultures pregnant C57BL/6J, or G9afl/fl;Snap25-Cre mice were euthanized. To ensure comparability between genotypes, only embryos from heterozygous breeding's were used. Brainstem tissue of each embryo for genotyping was reserved and cortices were isolated, dissociated and cells were plated at a density of 1 × 10^5 cells per 1 cm^2 on poly-D-lysine-coated wells (5 µM Sigma-Aldrich, cat. no. A-003-M). If not stated otherwise, cells were maintained in neurobasal plus medium (supplemented with B27 plus, penicillin, streptomycin and L-glutamine; Gibco, cat. no. A3582901) at 37°C, 5% CO^2 and a relative humidity of 98%, and treated with 1 µM cytarabine (Sigma-Aldrich, cat. no. BP383) at 1 day in vitro (div) to inhibit glial cell proliferation. If no cytarabine was applied cells were maintained in PNBM medium (supplemented with neural cell survival factor, gentamycin and L-glutamine; Lonza). Throughout, cultures after 14-23 div were used for experiments. G9a inhibitor UNC0642 was used in a concentration of 1 µM and cultures were pre-treated 24 hours before further experimental procedures.
Primary neuronal cultures were seeded on Ibidi 60 µ-Dish Quad (cat. No. 80411) plates. Cultures were infected with an AAV7 containing pAAV-Syn-GCamp6f-WPRE-SV40 (86) (Addgene 100837) at 7-10 div with a 20,000-fold multiplicity of infection (MOI). AAV particles were produced according to the standard procedures of the UKE vector facility. Images were acquired with a confocal LSM 700 laser scanning confocal microscope (Zeiss) every 0.48 seconds with a 20× magnification in an imaging chamber maintaining 37 °C and 5% CO2. Infected cultures were imaged in the respective culture medium. Before applying the indicated chemicals, 5-10 min of baseline activity was first recorded. At the end of the recording, 8 µM ionomycin was applied to induce the maximum cellular calcium response that was used for normalization. For data analysis, mean fluorescence values of every cell were measured using Fiji software (NIH) and normalized to the maximal calcium response after ionomycin challenge. For each cell, mean AUC of the calcium response was calculated using a custom R script.

[2] = molecular target: T1, G9a (Mus musculus, UniProt Q9Z148); experiment: H3K9me2 / G9a immunofluorescence staining in primary neuronal cultures; assay type: cell-based
T1 construct: UNC0642 pre-treated primary neuronal cultures compared to respective controls; endogenous in cells; host or cells: primary mouse cortical neuronal cultures (C57BL/6J embryos)
T1 sequence (Q9Z148 1-1263): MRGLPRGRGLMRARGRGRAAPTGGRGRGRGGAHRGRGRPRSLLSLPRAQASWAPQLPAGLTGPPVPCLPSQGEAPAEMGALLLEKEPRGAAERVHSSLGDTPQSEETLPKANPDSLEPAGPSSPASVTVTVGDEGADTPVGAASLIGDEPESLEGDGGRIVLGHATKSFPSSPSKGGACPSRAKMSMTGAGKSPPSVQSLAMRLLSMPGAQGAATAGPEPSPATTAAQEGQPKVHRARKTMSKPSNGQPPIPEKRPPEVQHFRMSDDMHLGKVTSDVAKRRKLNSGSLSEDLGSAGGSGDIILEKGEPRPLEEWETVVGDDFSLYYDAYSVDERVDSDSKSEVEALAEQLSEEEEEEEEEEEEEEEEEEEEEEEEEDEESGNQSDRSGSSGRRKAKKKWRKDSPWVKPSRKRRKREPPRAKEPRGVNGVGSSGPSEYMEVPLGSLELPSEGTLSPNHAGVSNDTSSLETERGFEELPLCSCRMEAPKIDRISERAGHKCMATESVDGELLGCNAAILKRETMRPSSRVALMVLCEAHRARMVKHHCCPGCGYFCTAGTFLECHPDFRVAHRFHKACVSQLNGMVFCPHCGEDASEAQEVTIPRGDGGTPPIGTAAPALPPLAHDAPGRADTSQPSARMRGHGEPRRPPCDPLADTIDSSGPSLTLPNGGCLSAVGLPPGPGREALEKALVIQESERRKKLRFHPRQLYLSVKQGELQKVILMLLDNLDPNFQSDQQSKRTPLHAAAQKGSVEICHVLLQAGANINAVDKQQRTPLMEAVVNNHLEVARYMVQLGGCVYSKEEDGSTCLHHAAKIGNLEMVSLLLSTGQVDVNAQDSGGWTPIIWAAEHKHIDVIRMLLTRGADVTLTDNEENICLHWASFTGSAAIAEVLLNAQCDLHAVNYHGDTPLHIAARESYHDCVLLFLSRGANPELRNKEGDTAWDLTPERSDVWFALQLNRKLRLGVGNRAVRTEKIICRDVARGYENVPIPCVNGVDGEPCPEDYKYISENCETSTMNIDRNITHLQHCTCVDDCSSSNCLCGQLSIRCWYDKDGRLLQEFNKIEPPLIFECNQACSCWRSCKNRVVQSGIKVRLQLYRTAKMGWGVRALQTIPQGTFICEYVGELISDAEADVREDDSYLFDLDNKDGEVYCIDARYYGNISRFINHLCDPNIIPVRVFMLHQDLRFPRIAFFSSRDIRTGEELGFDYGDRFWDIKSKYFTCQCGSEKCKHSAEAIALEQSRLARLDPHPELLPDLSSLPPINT
Method: as §1
Immunocytochemistry was performed as described previously (15). HiPSC-neurons and mouse neurons were cultivated on 12 mm diameter cover slips or on 96-well plates suited for confocal microscopy, fixed with 4% paraformaldehyde (PFA), incubated in 10% normal donkey's serum (NDS) containing 0.25% Triton X-100, and subsequently immunolabeling was performed. Immunostainings were analyzed with a Zeiss LSM 700 confocal microscope.

[3] = test system: primary cortical cultures; experiment: RealTime-Glo cell viability assay, glutamate excitotoxicity; assay type: cell-based, mouse; conditions: G9a-deficient neurons from G9afl/fl;Snap25-Cre mice treated with UNC0642; readout not stated
Method: as §1, with “G9a inhibitor UNC0642 was used in a concentration of 1 µM and cultures were pre-treated 24 hours before further experimental procedures.” left out
RealTime-Glo (Promega, cat. no. G9711) MT cell viability substrate and NanoLuc Enzyme was mixed together, added to neuronal cultures and incubated for 5 hours for equilibration of luminescence signal before respective treatments were applied. Luminescence was acquired with a Spark 10M multimode microplate reader (Tecan) at 37°C and 5% CO2 every 30 min over a total time period of 24 hours. […]

[4] = primary neuronal cultures, 1 µM UNC0642 pre-treated 24 hours, vs. DMSO

`COc1cc2c(NC3CCN(C(C)C)CC3)nc(N3CCC(F)(F)CC3)nc2cc1OCCCN1CCCC1` [UNC0642, 2-(4,4-difluoropiperidin-1-yl)-6-methoxy-N-[1-(propan-2-yl)piperidin-4-yl]-7-[3-(pyrrolidin-1-yl)propoxy]quinazolin-4-amine] was tested, and the “potentiation of rescue effects of ferroptosis inhibition on glutamate-induced calcium overload” value [1] was “did not further potentiate the rescue effects of ferroptosis inhibition”, the “upregulation of H3K9me2 in response to ferroptosis induction” value ([2]; erastin or RSL3, with UNC0642) was “effectively prevented” and the “upregulation of H3K9me2 by hydrogen peroxide treatment” value ([2]; hydrogen peroxide stimulation, UNC0642 treatment) was “still able to overcome this effect”. For the same molecule, the G9a protein level [2, 4] was “did not change”, the “reduction of H3K9me2 signal” value [2, 4] was 45% and the “additional rescue effect during glutamate stress” value [3] was “no additional rescue effect”.
